Measurements taken from patent US20180370927A1, “MICROBIOCIDAL OXADIAZOLE DERIVATIVES” (SYNGENTA PARTICIPATIONS AG, priority 2015, published 2018).
Read-outs that look alike come from different tables or passages of the source.

Columns and labels:
[1] = system: Glomerella lacenarium (Colletotrichum lacenarium); test: Glomerella lacenarium (Colletotrichum lacenarium) liquid culture / cucumber / preventative (anthracnose); format: cell-based; conditions: read-out: disease control (inhibition of growth, photometric) compared to untreated control
Method: Mycelia fragments or conidia suspensions of a fungus prepared either freshly from liquid cultures of the fungus or from cryogenic storage, are directly mixed into nutrient broth. DMSO solutions of the test compound (max. 10 mg/ml) are diluted with 0.025% Tween20 by a factor of 50 and 10 μL of this solution is pipetted into a microtiter plate (96-well format). The nutrient broth containing the fungal spores/mycelia fragments is then added to give an end concentration of the tested compound. The test plates are incubated in the dark at 24° C. and 96% relative humidity. The inhibition of fungal growth is determined photometrically after 2 to 7 days, depending on the pathosystem, and percent antifungal activity relative to the untreated check is calculated.
Example 4: Fungicidal Activity Against Glomerella lacenarium (Colletotrichum lacenarium) Liquid Culture/Cucumber/Preventative (Anthracnose)
Conidia of the fungus from cryogenic storage are directly mixed into nutrient broth (PDB—potato dextrose broth). After placing a (DMSO) solution of test compound into a microtiter plate (96-well format), the nutrient broth containing the fungal spores is added. The test plates are incubated at 24° C. and the inhibition of growth is measured photometrically 3 to 4 days after application.
The following compounds at 20 ppm in the applied formulation give at least 80% disease control in this test when compared to untreated control under the same conditions, which show extensive disease development.

[2] = system: Puccinia recondita f. Sp. Tritici; test: Puccinia recondita f. sp. tritici / wheat / leaf disc preventative (brown rust); format: in vivo; conditions: foliar, read-out: disease control compared to untreated control leaf disks
Method: Leaf disks or leaf segments of various plant species are cut from plants grown in a greenhouse. The cut leaf disks or segments are placed in multiwell plates (24-well format) onto water agar. The leaf disks are sprayed with a test solution before (preventative) or after (curative) inoculation. Compounds to be tested are prepared as DMSO solutions (max. 10 mg/mL) which are diluted to the appropriate concentration with 0.025% Tween20 just before spraying. The inoculated leaf disks or segments are incubated under defined conditions (temperature, relative humidity, light, etc.) according to the respective test system. A single evaluation of disease level is carried out 3 to 14 days after inoculation, depending on the pathosystem. Percent disease control relative to the untreated check leaf disks or segments is then calculated.
Example 1: Fungicidal Activity Against Puccinia recondita f. Sp. Tritici/Wheat/Leaf Disc Preventative (Brown Rust)
Wheat leaf segments cv. Kanzler were placed on agar in multiwell plates (24-well format) and sprayed with the formulated test compound diluted in water. The leaf disks were inoculated with a spore suspension of the fungus 1 day after application. The inoculated leaf segments were incubated at 19° C. and 75% relative humidity (rh) under a light regime of 12 hours light/12 hours darkness in a climate cabinet and the activity of a compound was assessed as percent disease control compared to untreated when an appropriate level of disease damage appears in untreated check leaf segments (7 to 9 days after application).
The following compounds at 200 ppm in the applied formulation give at least 80% disease control in this test when compared to untreated control leaf disks under the same conditions, which show extensive disease development.

[3] = 20 ppm in the applied formulation, liquid culture in PDB, 24° C., 3 to 4 days after application
[4] = 200 ppm in the applied formulation, wheat leaf segments, preventative, assessed 7 to 9 days after application

| Structure (SMILES) | inhibition at 20 ppm [1, 3] | pest or weed control at 200 ppm [2, 4] | pest or weed control at 200 ppm [2] | inhibition at 20 ppm [1] |
| --- | --- | --- | --- | --- |
| CCCON(Cc1ccc(-c2noc(C(F)(F)F)n2)cc1)C(=O)C(=O)CCC [Compound 1.7, 2-oxo-N-propoxy-N-[[4-[5-(trifluoromethyl)-1,2,4-oxadiazol-3-yl]phenyl]methyl]pentanamide] | ≥ 80% |  |  |  |
| CCCON(Cc1ccc(-c2noc(C(F)(F)F)n2)cc1)C(=O)C(C)=O [Compound 1.8, 2-oxo-N-propoxy-N-[[4-[5-(trifluoromethyl)-1,2,4-oxadiazol-3-yl]phenyl]methyl]propanamide] | ≥ 80% | ≥ 80% |  |  |
| CCCC(=O)C(=O)N(Cc1ccc(-c2noc(C(F)(F)F)n2)cc1)C(C)CC (stereo not drawn) [Compound 1.11, 2-oxo-N-sec-butyl-N-[[4-[5-(trifluoromethyl)-1,2,4-oxadiazol-3-yl]phenyl]methyl]pentanamide] | ≥ 80% |  |  |  |
| CCCC(=O)C(=O)N(Cc1ccc(-c2noc(C(F)(F)F)n2)cc1)CC1CCCO1 (stereo not drawn) [Compound 1.13, 2-oxo-N-(tetrahydrofuran-2-ylmethyl)-N-[[4-[5-(trifluoromethyl)-1,2,4-oxadiazol-3-yl]phenyl]methyl]pentanamide] | ≥ 80% | ≥ 80% |  |  |
| CC(=O)C(=O)N(Cc1ccc(-c2noc(C(F)(F)F)n2)cc1)OCC=C(Cl)Cl [Compound 1.22, N-(3,3-dichloro-allyloxy)-2-oxo-N-[[4-[5-(trifluoromethyl)-1,2,4-oxadiazol-3-yl]phenyl]methyl]propanamide] | ≥ 80% | ≥ 80% |  |  |
| CCCC(=O)C(=O)N(Cc1ccc(-c2noc(C(F)(F)F)n2)cc1)OCC=C(Cl)Cl [Compound 1.23, N-(3,3-dichloro-allyloxy)-2-oxo-N-[[4-[5-(trifluoromethyl)-1,2,4-oxadiazol-3-yl]phenyl]methyl]pentanamide] | ≥ 80% |  |  |  |
| CCCC(=O)C(=O)N(Cc1ccc(-c2noc(C(F)(F)F)n2)cc1)OCc1ccc(Cl)cc1 [Compound 1.24, N-[(4-chlorophenyl)methoxy]-2-oxo-N-[[4-[5-(trifluoromethyl)-1,2,4-oxadiazol-3-yl]phenyl]methyl]pentanamide] | ≥ 80% |  |  |  |
| CC(=O)C(=O)NCc1ccc(-c2noc(C(F)(F)F)n2)cn1 [Compound 1.28, 2-oxo-N-[[5-[5-(trifluoromethyl)-1,2,4-oxadiazol-3-yl]-2-pyridyl]methyl]propanamide] | ≥ 80% |  |  |  |
| CC(=O)C(=O)NCc1ccc(-c2noc(C(F)(F)F)n2)cc1Cl [Compound 1.60, N-[[2-chloro-4-[5-(trifluoromethyl)-1,2,4-oxadiazol-3-yl]phenyl]methyl]-2-oxo-propanamide] | ≥ 80% |  |  |  |
| CC(C)CC(=O)C(=O)NCc1c(F)cc(-c2noc(C(F)(F)F)n2)cc1F [Compound 1.69, N-[[2,6-difluoro-4-[5-(trifluoromethyl)-1,2,4-oxadiazol-3-yl]phenyl]methyl]-4-methyl-2-oxo-pentanamide] | ≥ 80% | ≥ 80% |  |  |
| CON=C(C(=O)N(Cc1ccc(-c2noc(C(F)(F)F)n2)cc1)OC)c1ccccc1 [Compound 2.4, N-methoxy-2-methoxyimino-2-phenyl-N-[[4-[5-(trifluoromethyl)-1,2,4-oxadiazol-3-yl]phenyl]methyl]acetamide] | ≥ 80% | ≥ 80% |  |  |
| CO/N=C(\C#N)C(=O)N(Cc1ccc(-c2noc(C(F)(F)F)n2)cc1)C1CC1 [Compound 2.15, (1E)-2-[cyclopropyl-[[4-[5-(trifluoromethyl)-1,2,4-oxadiazol-3-yl]phenyl]methyl]amino]-N-methoxy-2-oxo-acetimidoyl cyanide] |  |  | ≥ 80% | ≥ 80% |
| COCCN(Cc1ccccc1)C(=O)C(=O)Nc1ccc(-c2noc(C(F)(F)F)n2)cc1 [Compound 4.15] | ≥ 80% | ≥ 80% |  |  |
| O=C(Nc1ccc(-c2noc(C(F)(F)F)n2)cc1)C(=O)N(Cc1ccc2c(c1)OCO2)CC1OCCO1 [Compound 4.16, N′-(1,3-benzodioxol-5-ylmethyl)-N′-(1,3-dioxolan-2-ylmethyl)-N-[4-[5-(trifluoromethyl)-1,2,4-oxadiazol-3-yl]phenyl]oxamide] | ≥ 80% |  |  |  |
| N#CCCN(CCC#N)C(=O)C(=O)Nc1ccc(-c2noc(C(F)(F)F)n2)cc1 [Compound 4.18, N′,N′-bis(2-cyanoethyl)-N-[4-[5-(trifluoromethyl)-1,2,4-oxadiazol-3-yl]phenyl]oxamide] |  | ≥ 80% |  |  |
| CN(C(=O)C(=O)Nc1ccc(-c2noc(C(F)(F)F)n2)cc1)C1CCN(C(=O)OC(C)(C)C)C1 (stereo not drawn) [Compound 4.22, tert-butyl 3-[methyl-[2-oxo-2-[4-[5-(trifluoromethyl)-1,2,4-oxadiazol-3-yl]anilino]acetyl]amino] pyrrolidine-1-carboxylate] |  | ≥ 80% |  |  |
| NC(=O)C(=O)N(Cc1ccc(-c2noc(C(F)(F)F)n2)cc1)Cc1ccco1 [Compound 4.24, N′-(2-furylmethyl)-N′-[[4-[5-(trifluoromethyl)-1,2,4-oxadiazol-3-yl]phenyl]methyl] oxamide] | ≥ 80% | ≥ 80% |  |  |
| CN(C)C(=O)C(=O)N(Cc1ccc(-c2noc(C(F)(F)F)n2)cc1)OCC=C(Cl)Cl [Compound 4.31, N′-(3,3-dichloroallyloxy)-N,N-dimethyl-N′-[[4-[5-(trifluoromethyl)-1,2,4-oxadiazol-3-yl]phenyl]methyl] oxamide] | ≥ 80% | ≥ 80% |  |  |
| NC(=O)C(=O)N(Cc1ccc(-c2noc(C(F)(F)F)n2)cc1)OCC=C(Cl)Cl [Compound 4.32, N′-(3,3-dichloroallyloxy)-N′-[[4-[5-(trifluoromethyl)-1,2,4-oxadiazol-3-yl]phenyl]methyl] oxamide] | ≥ 80% | ≥ 80% |  |  |
| CN(C)C(=O)C(=O)N(Cc1ccc(-c2noc(C(F)(F)F)n2)cc1)OCc1ccc(Cl)cc1 [Compound 4.33, N′-[(4-chlorophenyl)methoxy]-N,N-dimethyl-N′-[[4-[5-(trifluoromethyl)-1,2,4-oxadiazol-3-yl]phenyl]methyl] oxamide] | ≥ 80% |  |  |  |
| NC(=O)C(=O)N(Cc1ccc(-c2noc(C(F)(F)F)n2)cc1)OCc1ccc(Cl)cc1 [Compound 4.34, N′-[(4-chlorophenyl)methoxy]-N′-[[4-[5-(trifluoromethyl)-1,2,4-oxadiazol-3-yl]phenyl]methyl] oxamide] | ≥ 80% | ≥ 80% |  |  |
| CCON(C)C(=O)C(=O)NCc1ccc(-c2noc(C(F)(F)F)n2)cc1 [Compound 4.43, N′-ethoxy-N′-methyl-N-[[4-[5-(trifluoromethyl)-1,2,4-oxadiazol-3-yl]phenyl]methyl] oxamide] | ≥ 80% | ≥ 80% |  |  |
| CC(C)(C)CNC(=O)C(=O)NCc1ccc(-c2noc(C(F)(F)F)n2)cc1 [Compound 4.45, N′-(2,2-dimethylpropyl)-N-[[4-[5-(trifluoromethyl)-1,2,4-oxadiazol-3-yl]phenyl]methyl] oxamide] | ≥ 80% |  |  |  |
| CC(C)CNC(=O)C(=O)NCc1ccc(-c2noc(C(F)(F)F)n2)cc1 [Compound 4.50, N′-isobutyl-N-[[4-[5-(trifluoromethyl)-1,2,4-oxadiazol-3-yl]phenyl]methyl] oxamide] |  | ≥ 80% |  |  |
| O=C(NCc1ccccc1)C(=O)NCc1ccc(-c2noc(C(F)(F)F)n2)cc1 [Compound 4.53, N-benzyl-N′-[[4-[5-(trifluoromethyl)-1,2,4-oxadiazol-3-yl]phenyl]methyl] oxamide] |  | ≥ 80% |  |  |
| NC(=O)C(=O)NCc1ccc(-c2noc(C(F)(F)F)n2)cc1F [Compound 4.82, N′-[[2-fluoro-4-[5-(trifluoromethyl)-1,2,4-oxadiazol-3-yl]phenyl]methyl] oxarnide] | ≥ 80% |  |  |  |
| NC(=O)C(=O)NCc1ccc(-c2noc(C(F)(F)F)n2)c(F)c1 [Compound 4.83, N′-[[3-fluoro-4-[5-(trifluoromethyl)-1,2,4-oxadiazol-3-yl]phenyl]methyl] oxamide] | ≥ 80% |  |  |  |
